Data: patent publication US20230220065A1, “ANTIBODIES TO INTERLEUKIN-1BETA AND USES THEREOF” (ACADEMIA SINICA, priority 2020, published 2023)
“Also recorded” adds a separate entry of the source. Values belong to the molecule of their own block, whether it stands above or below them.

Key:
human IL-1β-induced IL-6 = experiment: Cytokine biomarker assay: human IL-1β-induced serum IL-6 in mice; assay type: in vivo; details: 0.2 mg/kg antibody intravenously, human IL-1β 240 ng/mouse intraperitoneally, male C57BL/6 mice
Experimental: FIG. 5 illustrates cytokine biomarker assay. (A) The concentration of injected IgG1 at different time courses to compare the stability of IgG in male C57BL/6 mouse serum. […] Then, the mice were injected intraperitoneally with human IL-1β (240 ng/200 μL/mouse). Two hours after the injection, the mice were restrained, and blood was collected to detect the serum IL-6 level in the mice. IgG26AW treatment can inhibit the 40% induction of IL-6, which responds to human IL-1β boosting.
Then, the mice were injected intraperitoneally with recombinant human IL-1β (R&D systems) 240 ng/200 μL/mouse; then, 2.5 hours after the injection (peak IL-6 response time), the mice were restrained, and blood was collected via a facial vein with a lancet. Serum mouse IL-6 levels were measured using a Quantikine ELISA Kit (R&D System) according to the manufacturer's protocol.
To determine whether various rodent and primate disease models could be used to test the in vivo efficacy of IgG26AW, the ability of IgG26AW to bind a number of species orthologs of IL-1β was measured by SPR. […] This affinity is not sufficient to test IgG26AW efficacy in mouse disease models. […] Moreover, concentrations of IgGs after the injection in the serum were evaluated in different time courses.

[1] = target: recombinant human IL-1β (117-269 amino acids, without the pro-peptide region) (human) (UniProt P01584)
[2] = target: recombinant human IL-1β (R&D systems) (human) (UniProt P01584)
[3] = test system: IL-1β-induced NF-κB signaling in HEK-blue IL-1β cells; experiment: In vitro IL-1β neutralization assay in HEK-blue IL-1β reporter cells (SEAP); assay type: cell-based, human
Source text: FIG. 1 illustrates inhibitory effect on IL-1β-induced NF-κB signaling of different selected IgGs from generic human phage-display libraries in HEK-blue IL-1β cells. (A) IL-1β bound to its receptor IL-1RI and its receptor accessory protein IL-1RAcP to form the IL-1β/IL-1RI/IL-1RAcP ternary complex. IL-1β induces downstream signaling pathways, including NF-κB activation (IκB degradation) and AP-1 activation (phosphorylation of JNK, p38 and ERK). (B) Ten IgGs bound to human IL-1β were selected from the generic human phage-display library.
FIG. 4 illustrates the comparison of IL-1β neutralizing abilities in different IL-1β-neutralizing antibodies. IL-1β was diluted from 1500 to 0 pM. Each antibody was added at a 5 nM concentration with different concentrations of IL-1β. HEK-blue-IL-1β cells were used to detect the IgG inhibitory effects of IL-1β signaling. The binding curve was fitted by a nonlinear regression curve to obtain the IC50.
FIG. 8 illustrates binding affinities and inhibitory effects of IgG variants selected from optimized IgG26 phage-display libraries. […] (B) Inhibitory effects on IL-1β-mediated downstream signaling were examined in 30 pM IL-1β-stimulated HEK-blue reporter cells. […]
After 16 hours, the inhibitory effect of IL-1β-induced signaling was monitored by SEAP assay. […]

Molecule: canakinumab: marketed anti-IL-1β antibody (Novartis), synthesized from patent US20090232803
inhibition of human IL-1β-induced systemic (serum) IL-6 (human IL-1β-induced IL-6): 47%

IL-1β concentration whose NF-κB signal is half inhibited by 5 nM antibody (HEK-blue IL-1β cells, SEAP assay; called IC50 in the legend) [1]: 0.925 nM
human IL-1β-induced systemic IL-6 expression in C57BL/6 mice (serum mouse IL-6, ELISA) [2]: 47%
Molecule: canakinumab (antibody)

Molecule: O=C(OC[C@H]1O[C@@H](OC(=O)c2cc(O)c(O)c(O)c2)[C@H](OC(=O)c2cc(O)c(O)c(O)c2)[C@@H](OC(=O)c2cc(O)c(O)c(O)c2)[C@@H]1OC(=O)c1cc(O)c(O)c(O)c1)c1cc(O)c(O)c(O)c1 [PGG, 1,2,3,4,6-Penta-O-Galloyl-β-D-Glucose]
NF-κB signaling inhibition of low dose IgG26AW combined with PGG ([3]; 69 pM IgG26AW combined with 50 μM PGG, IL-1β 588 to 0 pM (FIG. 14)): efficiently inhibits the NF-κB signaling as similar as 690 pM IgG26AW can do
effect of PGG cotreatment with IgG26AW on IL-1β induced NF-κB signaling ([3]; 75 pM IL-1β, IgG26AW 69 nM to 0 nM, PGG 30 μM or 50 μM (FIG. 13)): synergistically reduce NF-kB signaling; also recorded: dose-dependent inhibitory effect on NF-κB signaling
